Experimental data: US20060223729A1, “Photodynamic inactivation of bacterial spores” (priority 2003, published 2006)

Tests used:
[1] = system: B. cereus spores; experiment: Photodynamic inactivation (PDI) of B. cereus spores, colony-forming units; format: cell-based, B. cereus (ATCC14579); details: for photodynamic killing of spores: 100 mW/cm^2 appropriate wavelength light, 0 to 32 J/cm^2 (FIG. 5, FIG. 8)
Procedure: (§1) The bacteria studied in the following examples were B. atrophaeus (ATCC 9372), B. cereus (ATCC14579), B. thuringiensis (ATCC 33740) and B. subtilis (ATCC 6051). Growing bacterial cells were cultivated in brain-heart infusion (BHI) broth at 37° C. Aliquots of the suspension (10^8/mL) were stored at −80° C. and then used for the experiments.
(§2) For initial experiments spores of B. atrophaeus and B. cereus were purchased from SGM Biotech, Inc (Bozeman, Mont., USA). For subsequent experiments spores of all species were prepared in the laboratory using sporulation broth for B. atrophaeus and B. subtilis, or sporulation agar (Caipo et al., 2002; Nicholson & Setlow, 1990) for B. cereus and B. thuringiensis. The sporulation medium consisted of 16.0 g nutrient broth (Difco), 2.0 g KCl, 0.5 g MgSO4; 17 g of agar. The pH of the medium was adjusted to 7, then autoclaved and cooled. After cooling 1 ml of 1M […], 1 ml of 0.1 M MnCl2.4H2O, 1 ml of 1 mM FeSO4 and 2 ml 50% glucose were added. For spore purification the mixture of spores and cells was centrifuged at 1300 g for 20 min, washed with SX volume 1 M KCl/0.5 M NaCl, rinsed with sterile deionized water, then washed with 1 M NaCl, and rinsed with sterile deionized water again. Lysozyme (50 μg/mL) was added in the presence of buffer (5× volume Tris Cl, 0.05 M, pH 7 2), and incubated with constant stirring at 4° C. overnight. Lysozyme was removed by centrifuging 8 times (at 1300 g) and washing with sterile deionized water. Spores were frozen with 10% glycerol and stored until use. To avoid germination spores were used immediately after defrosting.
(§3) As photosensitizers Rose Bengal, Toluidine Blue O (TBO), Methylene Blue, New Methylene Blue N zinc chloride double salt (NMB), 1,9-Dimethylmethylene Blue Chloride (Sigma-Aldrich—DMMB), Azure A, Azure B, Azure C, methylene violet 3RAX, safranine O, and malachite green, were used. Stock solutions were prepared in water and stored at 4° C. in the dark before use. The concentrations of stock solution were 2 mM.
(§4) When Rose Bengal was used, irradiation was performed with an argon laser at 514 nm. A diode laser with wavelength 670 nm was used for experiments with Methylene Blue and 1,9-Dimethylmethylene Blue Chloride. Diode laser with wavelength 635 nm was used for Toluidine Blue O and New Methylene Blue N. For other dyes either a turnable argon ion pumped dye laser or a 514 nm argon ion laser was used.
(§5) Suspensions of spores or bacteria (10^8/mL, 10^7/mL, 10^6/mL) were incubated with photosensitizers in the dark at room temperature. Incubation time was ranged from 1 min to 24 h and the photosensitizer concentrations varied form 10 μM to 1 mM. The cell suspensions were centrifuged at 20800 g and then washed several times with sterile PBS. The bacterial suspensions were placed on two well (concavities hanging drop) slides (Fisher Scientific) and irradiated with appropriate laser at room temperature. Fluences ranged from 0 to 300 J/cm^2. Fluence rates varied from 0 to 500 mW/cm^2. During irradiation aliquots of 20 μL were taken to determine the colony-forming units. The contents of the wells were mixed before sampling. The aliquots were serially diluted 10-fold in PBS to give dilutions of 10^−1-10^−6 times the original concentrations and were streaked horizontally on square BHI agar plates as described by (Jett et al., 1997). Plates were incubated at 37° C. overnight.
(§6) Two types of control conditions were used: irradiation in the absence of photosensitizers and incubation with photosensitizers in the dark.

[2] = system: B. thuringiensis spores; experiment: Photodynamic inactivation (PDI) of B. thuringiensis spores, colony-forming units; format: cell-based, B. thuringiensis (ATCC 33740); details: 100 μM, 1 hour, 100 mW/cm^2 appropriate wavelength light, 0 to 32 J/cm^2 (FIG. 9, FIG. 10)
Procedure: as §1, §2, §3, §4, §5, §6

[3] = system: B. subtilis spores; experiment: Photodynamic inactivation (PDI) of B. subtilis spores, colony-forming units; format: cell-based, B. subtilis (ATCC 6051); details: needs ten times the dye and six times the light of B. cereus and B. thuringiensis; 100 mW/cm^2 635-nm light (FIG. 3)
Procedure: as §1
as §2, with “Lysozyme was removed by centrifuging 8 times (at 1300 g) and washing with sterile deionized water. Spores were frozen with 10% glycerol and stored until use. To avoid germination spores were used immediately after defrosting.” left out

[4] = system: B. cereus vegetative cells; experiment: Photoinactivation of B. cereus vegetative cells; format: cell-based, B. cereus (ATCC14579); details: 10(7)/mL, 3 hours at 37° C., 100 mW/cm^2 635-nm light (FIG. 13)
Procedure: as §1
as §5, with “overnight. […]” for “overnight.”

[5] = system: B. subtilis vegetative cells; experiment: Photoinactivation of B. subtilis vegetative cells; format: cell-based, B. subtilis (ATCC 6051); details: 10(7)/mL, 3 hours at 37° C., 100 mW/cm^2 635-nm light (FIG. 13)
Procedure: as §1
as §5, with “overnight. […]” for “overnight.”

Compound	photodynamic killing of spores ([1]; 100 μM, 1 hour)	photodynamic killing of spores [2]	further results
CN(C)c1ccc2nc3ccc(=[N+](C)C)cc-3sc2c1 [methylene blue, Methylene Blue]	effective	–	–
Cc1cc2nc3cc(C)c(N)cc3[n+](-c3ccccc3)c2cc1N.[Cl-] [safranin O, safranine O]	effective	–	–
New Methylene Blue N zinc chloride double salt [NMB]	effective	effective	–
Cc1cc(N(C)C)cc2[s+]c3cc(N(C)C)cc(C)c3nc12.[Cl-] [DMMB, 1,9-Dimethylmethylene Blue Chloride]	–	effective	effect of incubation time on effectiveness of killing ([1]; 50 μM DMMB, 1 minute to 24 hours incubation, 670 nm light (FIG. 7)): effectiveness of killing increases with increasing incubation time; killing of spores in PDI ([1]; DMMB, 670 nm light (FIG. 7)): effective
CN(C)c1ccc(C(=C2C=CC(=[N+](C)C)C=C2)c2ccccc2)cc1 [malachite green]	effective	–	–
Cc1cc2nc3ccc(N(C)C)cc3[s+]c2cc1N.[Cl-] [TBO, Toluidine Blue O]	–	effective	killing of spores as a function of concentration and light fluence ([1]; 10 μM, 100 μM or 1 mM, 10 minutes, 100 mW/cm^2 635-nm light (FIG. 2)): improved, depending on both TBO concentration and light fluence; most effective incubation period ([1]; 50 μM TBO (FIG. 6)): ≥ 3 h; effect of incubation time on effectiveness of killing ([1]; 50 μM TBO, 1 minute to 24 hours incubation (FIG. 6)): effectiveness of killing increases with increasing incubation time; spores killed ([1]; 100 μM, 10 minutes incubation, 100 mW/cm^2 635-nm light (FIG. 1)): greater than 99.9%; killing of spores at the first lowest light dose tested ([1]; 1 mM dose, 10 minutes, 100 mW/cm^2 635-nm light (FIG. 2)): complete killing; dark toxicity to spores ([1]; 1 mM dose, 10 minutes, no light (FIG. 2)): significant dark toxicity; killing of spores [3]: more than 99.9%; sensitivity of vegetative cells to PDI [4]: sensitive to PDI; sensitivity of vegetative cells to PDI [5]: sensitive to PDI
CN(C)c1ccc2nc3ccc(N)cc3[s+]c2c1.[Cl-] [Azure A]	effective	effective	–
CNc1ccc2nc3ccc(=[N+](C)C)cc-3sc2c1.[Cl-] [Azure B]	effective	effective	–
CNc1ccc2nc3ccc(N)cc3[s+]c2c1.[Cl-] [Azure C]	effective	effective	rank of potency among the dyes of FIG. 5 ([1]; 100 μM, 1 hour, 100 mW/cm^2 (FIG. 5)): most potent
CCN(CC)c1ccc2nc3ccc(N)cc3[n+](-c3ccccc3)c2c1.[Cl-] [methylene violet 3RAX]	effective	–	–
